The text below walks through data of ChEMBL document CHEMBL1255270, “Relationship between antibiotic use and incidence of MexXY-OprM overproducers among clinical isolates of Pseudomonas aeruginosa” (2008).

Values after ≈ are worked out from the molar mass of the structure shown.

Format in all cases: functional
Assay [1] has as its system Pseudomonas aeruginosa. Description: Antimicrobial activity against MexXY-OprM-overproducing Pseudomonas aeruginosa PAO1 harboring MexY agrZ mutant and MexZ mutant gene selected after 1 ug/ml of tobramycin exposure.
Assay [2] relates to Pseudomonas aeruginosa. Description: Antimicrobial activity against mexXY-OprM-overproducing Pseudomonas aeruginosa PAO1.
Assay [3] has as its system Pseudomonas aeruginosa. Briefly: Antimicrobial activity against MexXY-OprM-overproducing Pseudomonas aeruginosa PAO1 harboring MexY agrW mutant and MexZ mutant gene selected after 0.25 ug/ml of ciprofloxacin exposure.
Assay [4] concerns Pseudomonas aeruginosa. Description: Antimicrobial activity against MexXY-OprM-overproducing Pseudomonas aeruginosa PAO1 harboring MexY agrZ mutant and MexZ mutant gene selected after 4ug/ml of gentamycin exposure.
Assay [5] relates to Pseudomonas aeruginosa. Description: Antimicrobial activity against MexXY-OprM-overproducing Pseudomonas aeruginosa PAO1 harboring MexY and MexZ mutant gene selected after 0.25 ug/ml of ciprofloxacin exposure.
Assay [6] deals with Pseudomonas aeruginosa. Description: Antimicrobial activity against MexXY-OprM-overproducing Pseudomonas aeruginosa PAO1 harboring MexY and MexZ mutant gene selected after 8 ug/ml of amikacin exposure.
In assay [7] the test system is Pseudomonas aeruginosa. Briefly: Antimicrobial activity against MexXY-OprM-overproducing Pseudomonas aeruginosa PAO1 harboring MexY agrW mutant and MexZ mutant gene selected after 1 ug/ml of oflaxacin exposure.
In assay [8] the test system is Pseudomonas aeruginosa. Briefly: Antimicrobial activity against MexXY-OprM-overproducing Pseudomonas aeruginosa PAO1 harboring MexY agrZ mutant and MexZ mutant gene selected after 1 ug/ml of Norfloxacin exposure.
Assay [9] deals with Pseudomonas aeruginosa. Briefly: Antimicrobial activity against MexXY-OprM-overproducing Pseudomonas aeruginosa PAO1 harboring MexY agrW mutant and MexZ mutant gene selected after 8 ug/ml of amikacin exposure.
The test system of assay [10] is Pseudomonas aeruginosa. Description: Antimicrobial activity against MexXY-OprM-overproducing Pseudomonas aeruginosa PAO1 harboring MexY agrW mutant and MexZ mutant gene selected after 4 ug/ml of cefepime exposure.
Assay [11] relates to Pseudomonas aeruginosa. Briefly: Antimicrobial activity against MexXY-OprM-overproducing Pseudomonas aeruginosa PAO1 harboring MexY and MexZ mutant gene selected after 4 ug/ml of cefepime exposure.
The subject of assay [12] is Pseudomonas aeruginosa. Briefly: Antimicrobial activity against mexXY-OprM-overproducing Pseudomonas aeruginosa isolate PA/XY assessed as zone of inhibition by disk diffusion method. A general note: In agar diffusion tests the substance spreads into inoculated agar from a disc or well.
Assay [13] deals with Pseudomonas aeruginosa. Briefly: Antimicrobial activity against mexXY-OprM-overproducing Pseudomonas aeruginosa clinical isolate.

Usually MIC stands for the smallest concentration in the dilution series that meets the test's criterion for growth inhibition. Take `CO/N=C(\C(=O)N[C@@H]1C(=O)N2C(C(=O)[O-])=C(C[N+]3(C)CCCC3)CS[C@H]12)c1csc(N)n1`: the minimal inhibitory concentration (MIC) in the assay with Pseudomonas aeruginosa [1] was 4 µg/mL; in the assay with Pseudomonas aeruginosa [2], 2 µg/mL (≈ 4.16 µM); in the assay on Pseudomonas aeruginosa [3], 4 µg/mL; with Pseudomonas aeruginosa [4], 4 µg/mL; in the assay with Pseudomonas aeruginosa [5] it was 4 µg/mL; with Pseudomonas aeruginosa [6], 4 µg/mL. Besides, the MIC in the assay with Pseudomonas aeruginosa [7], in the assay on Pseudomonas aeruginosa [8], in the assay on Pseudomonas aeruginosa [9], in the assay on Pseudomonas aeruginosa [10] and in the assay on Pseudomonas aeruginosa [11] was 4 µg/mL throughout.

In the case of `NCC[C@H](O)C(=O)N[C@@H]1C[C@H](N)[C@@H](O[C@H]2O[C@H](CN)[C@@H](O)[C@H](O)[C@H]2O)[C@H](O)[C@H]1O[C@H]1O[C@H](CO)[C@@H](O)[C@H](N)[C@H]1O` [AMIKACIN], the MIC is 8 µg/mL with Pseudomonas aeruginosa [1]; 4 µg/mL (≈ 6.83 µM) in the assay with Pseudomonas aeruginosa [2]; 8 µg/mL in the assay on Pseudomonas aeruginosa [3]; 8 µg/mL in the assay on Pseudomonas aeruginosa [4]; 8 µg/mL in the assay on Pseudomonas aeruginosa [5]; 8 µg/mL in the assay on Pseudomonas aeruginosa [6]. The minimum inhibitory concentration (MIC) stood at 8 µg/mL with Pseudomonas aeruginosa [7]; 8 µg/mL in the assay on Pseudomonas aeruginosa [8]; 8 µg/mL in the assay on Pseudomonas aeruginosa [9]; 4 µg/mL (≈ 6.83 µM) with Pseudomonas aeruginosa [13]; 8 µg/mL in the assay on Pseudomonas aeruginosa [10]; 8 µg/mL in the assay on Pseudomonas aeruginosa [11]. Moreover, the “inhibition zone (IZ)” value in the assay with Pseudomonas aeruginosa [12] was less than 20 mm.

With `O=C(O)c1cn(C2CC2)c2cc(N3CCNCC3)c(F)cc2c1=O` [CIPROFLOXACIN], in the assay with Pseudomonas aeruginosa [2], the MIC came to 0.12 µg/mL (≈ 0.362 µM).

With `NC[C@H]1O[C@H](O[C@H]2[C@H](O)[C@@H](O[C@H]3O[C@H](CO)[C@@H](O)[C@H](N)[C@H]3O)[C@H](N)C[C@@H]2N)[C@H](N)C[C@@H]1O` [TOBRAMYCIN], the minimum inhibitory concentration (MIC) with Pseudomonas aeruginosa [1] was determined as 2 µg/mL; in the assay with Pseudomonas aeruginosa [2] it was 1 µg/mL (≈ 2.14 µM); with Pseudomonas aeruginosa [3] it was 2 µg/mL; in the assay on Pseudomonas aeruginosa [4] it was 2 µg/mL; in the assay on Pseudomonas aeruginosa [5], 2 µg/mL; in the assay on Pseudomonas aeruginosa [6], 2 µg/mL. The minimum inhibitory concentration (MIC) in the assay with Pseudomonas aeruginosa [7] stood at 2 µg/mL; with Pseudomonas aeruginosa [8], 2 µg/mL; in the assay with Pseudomonas aeruginosa [9], 2 µg/mL; with Pseudomonas aeruginosa [13], 1 µg/mL (≈ 2.14 µM); with Pseudomonas aeruginosa [10], 2 µg/mL; in the assay on Pseudomonas aeruginosa [11], 2 µg/mL. In addition, in the assay on Pseudomonas aeruginosa [12], the “inhibition zone (IZ)” value was less than 20 mm.

Take GENTAMICIN: the MIC was 8 µg/mL in the assay on Pseudomonas aeruginosa [1]; 4 µg/mL with Pseudomonas aeruginosa [2]; 8 µg/mL with Pseudomonas aeruginosa [3]; 8 µg/mL in the assay with Pseudomonas aeruginosa [4]; 8 µg/mL in the assay with Pseudomonas aeruginosa [5]; 8 µg/mL in the assay with Pseudomonas aeruginosa [6]. Moreover, the minimal inhibitory concentration (MIC) in the assay with Pseudomonas aeruginosa [7] was 8 µg/mL; in the assay with Pseudomonas aeruginosa [8] it was 8 µg/mL; in the assay with Pseudomonas aeruginosa [9], 8 µg/mL; against Pseudomonas aeruginosa [13], 2 µg/mL; with Pseudomonas aeruginosa [10], 8 µg/mL; in the assay with Pseudomonas aeruginosa [11] it was 8 µg/mL. The inhibition zone (IZ) with Pseudomonas aeruginosa [12] is less than 20 mm.
